Measured values from publication PMC3694096, “Development of Novel In Vivo Chemical Probes to Address CNS Protein Kinase Involvement in Synaptic Dysfunction” (PLoS ONE, 2013).

What was measured:
[1] = Dose escalation adverse event screen (SHIRPA based); assay type: in vivo; conditions: highest dose at which no adverse events are observed in dose escalation studies, mice
Text: Novel compounds were screened in vivo using a standard dose escalation screen in mice coupled with clinical observation and testing based on the SHIRPA mouse phenotype assay paradigm. To obtain insight into the potential for off-target activity with the largest known family of small molecule drug targets, G-protein coupled receptors (GPCRs), a cell-based functional screen of the final title compounds was done. The Millipore® GPCR Profiler screen employs the ChemiScreen GPCR stable cell line technology used for real-time calcium flux FLIPR assays on a panel of 158 GPCRs to detect both antagonists and agonists. The NCBI Entrez identifier for each GPCR is provided at the vendor site (www.millipore.com). Follow-up validation of any initial hits as being true positives or negatives was done as described above for protein kinases by testing the concentration dependence of any cellular effects. No validated hits were detected.

[2] = molecular target: casein kinase 1δ (CK1δ), p38βMAPK and other kinases; conditions: cited from earlier work
p38MAPKs = system: p38MAPKs; design: method as in PMID 17079143; conditions: cited from earlier work

| Structure (SMILES) | Dose Escalating Adverse Event Screen / Adverse Pharm Dose [1] [mg/kg] | other results |
| --- | --- | --- |
| CN(C)c1cc(-c2ccncc2)c(-c2ccccc2)nn1 [MW105, N, N-dimethyl-6-phenyl-5-(pyridin-4-yl)pyridazin-3-amine] | > 200 | – |
| CCN(CC)c1cc(-c2ccncc2)c(-c2ccccc2)nn1 [MW177] | > 200 | – |
| COc1nccc(-c2c(-c3ccc(F)cc3)ncn2C2CCC(O)CC2)n1 (centres unmarked) [SB239063] | – | kinase cross-over [2]: inhibit casein kinase 1δ (CK1δ), p38βMAPK and other kinases |
| c1ccc(-c2nnc(N3CCN(c4ncccn4)CC3)cc2-c2ccncc2)cc1 [MW069a] | 60 | – |
| c1ccc(-c2cc(-c3ccncc3)c(N3CCN(c4ncccn4)CC3)nn2)cc1 [MW01-6-189WH] | – | interaction with p38MAPKs (p38MAPKs): does not interact with p38MAPKs |
| C[S+]([O-])c1ccc(-c2nc(-c3ccncc3)c(-c3ccc(F)cc3)[nH]2)cc1 (centres unmarked) [SB203580] | – | kinase cross-over [2]: inhibit casein kinase 1δ (CK1δ), p38βMAPK and other kinases |
| CN1CCN(c2cc(-c3ccncc3)c(-c3ccccc3)nn2)CC1 [MW066] | > 200 | – |
| CCCN(C)c1cc(-c2ccncc2)c(-c2ccccc2)nn1 [MW207] | > 200 | – |
